# Source: paper PMC12293604, “Anticancer Effect of Nature-Inspired Indolizine-Based Pentathiepines in 2D and 3D Cellular Model” (Cancers, 2025)
# Assays:
# MCF7 [1] = assay: MTT cell viability assay, MCF7; type: cell-based; conditions: Homo sapiens, MCF7, 48h treatment, mean ± S.D.
# Method: (§1) The human cancer cell lines MCF7 (HTB-22, breast adenocarcinoma), MDA-MB-231 (HTB-26, breast adenocarcinoma), HCT116 (CCL-247, colorectal carcinoma), and A549 (CRM-CCL-185, lung carcinoma) were obtained from the American Type Culture Collection (ATCC, Manassas, VA, USA). The fibroblast cell line CR9, kindly provided by Dr. Guven, was maintained in ISCOVE medium. HCT116 cells were cultured in Dulbecco’s Modified Eagle Medium (DMEM), whereas A549, MCF7, and MDA-MB-231 cells were maintained in Roswell Park Memorial Institute 1640 (RPMI-1640) medium. All media were supplemented with 10% fetal bovine serum (FBS), 1% L-glutamine, and 0.5% antibiotic mixture (penicillin, streptomycin, and neomycin). Cell cultures were maintained at 37 °C in a humidified atmosphere with 5% CO2, following standard culture protocols. Additionally, for HCT116 cells, the culture medium was further supplemented with 1% sodium pyruvate and 1% non-essential amino acids.
# (§2) To evaluate the impact of the tested PTEs on cell viability, a colorimetric MTT assay was performed as previously described. Briefly, cells were seeded in 96-well microplates at initial densities of 5 × 10^3 cells per well for the MCF7, MDA-MB231, and A549 cell lines, and 4 × 10^3 cells per well for HCT116 cells. After an initial 24 h incubation period to allow for cell attachment and growth, the cultures were treated with different concentrations of PTEs (0.25–20 µM). Following 48 h of treatment, 50 μL of MTT solution (2 mg/mL in PBS) was added to each well, and the plates were incubated at 37 °C for 3 h to allow for MTT reduction by metabolically active cells. The resulting formazan crystals were solubilized, and cell viability was measured by recording the absorbance at 570 nm using an iMark Microplate Reader (BIORAD, Segrate, Milan, Italy). The cytotoxic effectiveness of the compounds was expressed as IC50 values, which were calculated from dose–response curves fitted with non-linear regression analysis using Calcusyn version 1.1.4. software (Biosoft, Cambridge, UK).
# MDA-MB231 [2] = assay: MTT cell viability assay, MDA-MB231; type: cell-based; conditions: Homo sapiens, MDA-MB-231, MDA-MB231, 48h treatment, mean ± S.D.
# Method: as §1, §2
# A549 [3] = assay: MTT cell viability assay, A549; type: cell-based; conditions: Homo sapiens, A549, 48h treatment, mean ± S.D.
# Method: as §1, §2
# HCT116 [4] = assay: MTT cell viability assay, HCT116; type: cell-based; conditions: Homo sapiens, HCT-116, HCT116, 48h treatment, mean ± S.D.
# Method: as §1, §2
# [5] = system: CR9 human fibroblast cells; assay: MTT cell viability assay, CR9 fibroblasts; type: cell-based; conditions: 48h treatment, mean ± S.D.
# Method: as §1, §2
# [6] = system: MCF7, MDA-MB-231, A549, and HCT116 cells; assay: MTT cell viability assay, summary across the cell line panel; type: cell-based, human; conditions: 48 h treatment, across tested cell lines
# Method: The fibroblast cell line CR9, kindly provided by Dr. Guven, was maintained in ISCOVE medium. […] All media were supplemented with 10% fetal bovine serum (FBS), 1% L-glutamine, and 0.5% antibiotic mixture (penicillin, streptomycin, and neomycin). Cell cultures were maintained at 37 °C in a humidified atmosphere with 5% CO2, following standard culture protocols. Additionally, for HCT116 cells, the culture medium was further supplemented with 1% sodium pyruvate and 1% non-essential amino acids.
# as §2, with “Following 48 h of treatment, 50 μL of MTT solution (2 mg/mL in PBS) was added to each well, and the plates were incubated at 37 °C for 3 h to allow for MTT reduction by metabolically active cells.” left out
# [7] = system: MCF7, MDA-MB231, A549 and HCT116 cells; assay: Apoptotic cell death, flow cytometry (sub-G1, PI); type: cell-based, human; conditions: 48 h treatment at IC50 concentration, vs. untreated controls
# Method: (§3) The potential of the tested PTE derivatives to induce apoptotic and/or necrotic cell death, as well as to cause alterations in cell cycle distribution, was evaluated following a 48 h exposure to their respective IC50 concentrations, using flow cytometric analysis as previously described. Briefly, the indicated cell lines were seeded in 12-well plates (3 × 10^5 cells/well) and treated 24 h post-seeding. At the end of the treatment period, following harvesting, cells were washed with PBS and fixed in ice-cold 70% ethanol at −20 °C for a minimum duration of 45 min, to assess apoptotic cell death and perform cell cycle analysis. After fixation, cells were washed again with PBS and stained with a propidium iodide (PI)/RNase solution (50 µg/mL PI and 30 U/mL RNase) in PBS for 15 min at room temperature.
# (§4) Flow cytometric analysis was performed using a FACScalibur flow cytometer (Becton Dickinson, Milan, Italy), equipped with a 15 mW, 488 nm air-cooled argon ion laser. Data were acquired and analyzed with CellQuestPRO version 5.1 software. PI fluorescence was detected using a 575 nm band-pass filter. The percentage of apoptotic cells was determined by identifying sub-G1 peaks in monoparametric histograms obtained in logarithmic mode. For cell cycle distribution, PI fluorescence was also analyzed with monoparametric histograms, but data were collected in linear mode.
# HCT116 [8] = assay: Necrotic cell death, flow cytometry (PI without fixation), HCT116; type: cell-based, human; conditions: HCT116, 48 h treatment at IC50 concentration
# Method: as §3, §4
# Necrotic cell death was assessed by omitting the ethanol fixation step from the staining protocol, thereby enabling propidium iodide (PI) to penetrate membrane-compromised cells, indicative of necrosis.
# MDA-MB231 [9] = assay: Cell cycle distribution, flow cytometry, MDA-MB231; type: cell-based, human; conditions: MDA-MB231, 48 h at equitoxic (IC50) concentrations
# Method: as §3, §4
# HCT116 [10] = assay: Cell cycle distribution, flow cytometry, HCT116; type: cell-based, human; conditions: HCT116, 48 h at equitoxic (IC50) concentrations
# Method: as §3, §4
# MDA-MB231 [11] = assay: Intracellular ROS levels (DCFH-DA), MDA-MB231; type: cell-based, human; conditions: MDA-MB231, 48 h at IC50 concentration, vs. CTR
# Method: (§5) Intracellular ROS levels were quantified using 2′,7′-dichlorodihydrofluorescein diacetate (DCFH-DA) as a fluorescent probe. After 48 h of treatment, cells were collected, rinsed with PBS, and incubated in a PBS solution containing 10 µM DCFH-DA. Following incubation, fluorescence corresponding to oxidized fluorescein was measured using a 530 nm band-pass filter. ROS production was expressed in arbitrary units based on the median fluorescence intensity (MFI).
# [12] = system: MCF7, MDA-MB231, A549 and HCT116 cells; assay: Intracellular ROS levels (DCFH-DA), summary across cell lines; type: cell-based, human; conditions: 48 h at IC50 concentration, four cell lines
# Method: as §5
# [13] = system: MCF7, MDA-MB231, A549 and HCT116 cell lines; assay: Hydrosulfide production (DNS-N3 probe), summary across cell lines; type: cell-based, human; conditions: 48 h at IC50 concentration, all cell lines
# Method: PTEs-induced sulfide production was evaluated using dansyl azide (DNS-N3) as a probe. DNS-N3 is non-fluorescent itself, while in the presence of hydrosulfide, the azide transforms into the dansyl amide and fluorescence is switched on. After 48 h of treatment, cells were harvested, washed with PBS, and incubated in a PBS solution containing 200 μM DNS-N3. Following 30 min incubation at 37 °C, fluorescence increase was measured through a 575 nm band-pass filter. The levels of hydrosulfide production were assessed and reported in arbitrary units, calculated from the median fluorescence intensity (MFI) measurements. For all flow cytometric analyses, untreated cells (i.e., not exposed to PTE compounds) were used as negative controls.
# MCF7 [14] = assay: Intracellular ROS levels (DCFH-DA), MCF7; type: cell-based, human; conditions: MCF7, 48 h at IC50 concentration, vs. CTR
# Method: as §5
# MCF7 [15] = assay: Cell cycle distribution, flow cytometry, MCF7; type: cell-based, human; conditions: MCF7, 48 h at equitoxic (IC50) concentrations
# Method: as §3, §4
# A549 [16] = assay: Cell cycle distribution, flow cytometry, A549; type: cell-based, human; conditions: A549, 48 h at equitoxic (IC50) concentrations
# Method: as §3, §4
# HCT116 [17] = assay: Intracellular ROS levels (DCFH-DA), HCT116; type: cell-based, human; conditions: HCT116, 48 h at IC50 concentration, vs. CTR
# Method: as §5
IC50 (MCF7 [1]),IC50 (MDA-MB231 [2]),IC50 (A549 [3]),IC50 (HCT116 [4]),Compound,IC50 [5],cytotoxic potency (in words) [6],apoptotic cell death [7],necrosis relative to apoptosis (HCT116 [8]),cell cycle shift: decrease in the G0/G1 phase population with G2/M phase accumulation (MDA-MB231 [9]),cell cycle shift: decrease in the G0/G1 phase population with G2/M phase accumulation (HCT116 [10]),increase in ROS production (MDA-MB231 [11]),ROS production (ranking in words) [12],sulfide production (in words) [13],increase in ROS production (MCF7 [14]),cell cycle shift: decrease in the G0/G1 phase population with G2/M phase accumulation (MCF7 [15]),cell cycle shift: decrease in the G0/G1 phase population with G2/M phase accumulation (A549 [16]),increase in ROS production (HCT116 [17])
3210 ± 130 nM,630 ± 750 nM,3220 ± 390 nM,1590 ± 150 nM,CCOc1c2c(c3ccc([N+](=O)[O-])cn13)SSSSS2 [3^NO2],2870 ± 140 nM,noteworthy efficacy,most potent inducers of apoptosis,–,–,–,statistically significant,–,–,statistically significant,–,–,–
2680 ± 310 nM,630 ± 40 nM,1540 ± 80 nM,830 ± 40 nM,CCOc1c2c(c3ccccn13)SSSSS2 [compound 1],7320 ± 150 nM,noteworthy efficacy,most potent inducers of apoptosis,–,induced this characteristic cell cycle shift,induced this characteristic cell cycle shift,statistically significant,better ROS producers,most potent inducers of sulfide production,statistically significant,induced this characteristic cell cycle shift,induced this characteristic cell cycle shift,statistically significant
4500 ± 510 nM,17800 ± 1960 nM,1500 ± 210 nM,3500 ± 600 nM,"COc1cccc2c1C(=O)c1c(O)c3c(c(O)c1C2=O)C[C@@](O)(C(=O)CO)C[C@@H]3O[C@H]1C[C@H](N)[C@H](O)[C@H](C)O1 [doxo, doxorubicin, reference compound]",–,–,–,–,–,–,–,–,–,–,–,–,–

# The next lines start with the molecule.
Compound,IC50 (MCF7 [1]),IC50 (MDA-MB231 [2]),IC50 (A549 [3]),IC50 (HCT116 [4]),IC50 [5],cytotoxic potency (in words) [6],apoptotic cell death [7],necrosis relative to apoptosis (HCT116 [8]),cell cycle shift: decrease in the G0/G1 phase population with G2/M phase accumulation (MDA-MB231 [9]),cell cycle shift: decrease in the G0/G1 phase population with G2/M phase accumulation (HCT116 [10]),increase in ROS production (MDA-MB231 [11]),ROS production (ranking in words) [12],sulfide production (in words) [13],increase in ROS production (MCF7 [14]),cell cycle shift: decrease in the G0/G1 phase population with G2/M phase accumulation (MCF7 [15]),cell cycle shift: decrease in the G0/G1 phase population with G2/M phase accumulation (A549 [16]),increase in ROS production (HCT116 [17])
OCCOc1c2c(c3ccccn13)SSSSS2 [2^Gly],1130 ± 20 nM,300 ± 30 nM,790 ± 60 nM,603 ± 40 nM,1610 ± 130 nM,highest cytotoxic potency,most potent inducers of apoptosis,higher levels of necrosis relative to apoptosis,triggered similar effects,triggered similar effects,statistically significant,better ROS producers,most potent inducers of sulfide production,–,–,–,–
"CCOc1c2c(c3ccc(C=O)cn13)SSSSS2 [3^CHO, 6-ethoxy-9-formyl-[1,2,3,4,5]pentathiepino [6,7-a]indolizine]",1700 ± 30 nM,390 ± 40 nM,1030 ± 40 nM,740 ± 60 nM,1900 ± 120 nM,highest cytotoxic potency,most potent inducers of apoptosis,higher levels of necrosis relative to apoptosis,exerted this effect exclusively in MDA-MB231 cells,–,statistically significant,better ROS producers,most potent inducers of sulfide production,statistically significant,–,–,–
